Test results published in PMC5342262, “Synthesis, in vitro and in vivo evaluation of 3β-[^18F]fluorocholic acid for the detection of drug-induced cholestasis in mice” (PLoS ONE, 2017).

How the values were obtained:
[1] = parameters: method as in PMID 27513813; settings: cited from earlier work
MRP2 = MRP2 (Homo sapiens, UniProt Q92887); assay: In vitro efflux competition assay with [^3H]EbG in MRP2 membrane vesicles
Procedure: (§1) The assay was performed in 96-well plates. […] The final volume in each well was 30 μL. The plates were incubated for 10 minutes at 37°C and uptake was halted by the addition of 150 μL ice-cold buffer solution. The contents of each well were transferred to a glass fiber filter plate (Multiscreen HTS plates; Merck Millipore) and washed 3 times with 200 μL of ice-cold buffer solution. Vesicles were lysed by incubation with 100 μL 0.1 M NaOH for 10 minutes at room temperature. An 80 μL aliquot of this solution was used for liquid scintillation counting. Data points were collected in triplicate. IC50-values were calculated with Graphpad Prism v3.00.

OATP1B3 = target: T1, OATP1B3 (Homo sapiens, UniProt Q9NPD5); assay: In vitro uptake assay with [^3H]EbG in HEK-OATP1B3 cells
T1 sequence (Q9NPD5 1-702): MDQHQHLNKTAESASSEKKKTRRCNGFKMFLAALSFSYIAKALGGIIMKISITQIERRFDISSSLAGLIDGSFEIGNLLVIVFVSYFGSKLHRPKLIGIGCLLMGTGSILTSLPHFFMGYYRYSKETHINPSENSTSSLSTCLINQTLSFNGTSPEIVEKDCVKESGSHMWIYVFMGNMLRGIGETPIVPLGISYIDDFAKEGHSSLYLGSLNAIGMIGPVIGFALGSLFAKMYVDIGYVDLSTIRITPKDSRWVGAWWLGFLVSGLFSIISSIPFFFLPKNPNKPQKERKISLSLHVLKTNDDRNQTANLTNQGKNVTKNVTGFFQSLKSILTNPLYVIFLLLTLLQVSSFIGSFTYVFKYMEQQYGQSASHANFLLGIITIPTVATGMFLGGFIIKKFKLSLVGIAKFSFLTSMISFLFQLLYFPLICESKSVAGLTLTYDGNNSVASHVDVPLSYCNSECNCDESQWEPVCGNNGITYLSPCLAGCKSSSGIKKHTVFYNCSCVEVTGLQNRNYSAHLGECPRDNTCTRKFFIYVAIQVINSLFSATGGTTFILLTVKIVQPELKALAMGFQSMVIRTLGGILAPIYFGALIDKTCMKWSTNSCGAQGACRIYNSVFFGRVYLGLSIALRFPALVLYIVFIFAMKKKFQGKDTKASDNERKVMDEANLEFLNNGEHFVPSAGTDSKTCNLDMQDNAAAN
Procedure: (§2) Transport of 3β-fluorocholic acid by NTCP, OATP1B1 and OATP1B3 was assessed using stable transfected cell lines. Chinese hamster ovary (CHO) cells, Human Embryonic Kidney (HEK), HEK293-OATP1B3 cells were purchased from Solvo Biotechnologies; CHO-NTCP and HEK293-OATP1B1 cells were a kind gift from the same company. CHO cells were cultured in Dulbecco’s modified Eagle’s medium (DMEM)/F12 with 10% fetal calf serum, 0.3 mM L-proline, 2 mM glutamine and penicilline/streptomycine (50 U/mL). HEK cells expressing OATP1B1, OATP1B3 and control cell lines were cultured in DMEM glutamax (high glucose/pyruvate) with 10% fetal calf serum, MEM non-essential amino acid supplement and penicilline/streptomycine (50 U/mL). All cell lines were cultured in a 37°C 5% CO2 environment.
(§3) Transport of FCA by the NTCP, OATP1B1 and OATP1B3 transporters was assessed by inhibition of the tritium labeled model substrates uptake.
(§4) Cells were seeded in 24-well plates at 400,000 cells per well. […] The plates were cooled on ice and 1 mL 1% BSA ice-cold HBSS (with Ca and Mg) was added. Cells were washed twice with 2 mL ice-cold HBSS (with Ca and Mg) and were finally lysed with 250 μL 0.1 M NaOH. […] Of the lysate, 150 μL was used for liquid scintillation counting (TriCarb 2900 TR; Perkin Elmer) and 25 μL was subjected to a BCA assay (ThermoFisher Scientific) to determine protein content. Data points were collected in triplicate. IC50-values were calculated with Graphpad Prism v3.00 (Graphpad software).

OATP1B1 = target: T2, OATP1B1 (Homo sapiens, UniProt Q9Y6L6); assay: In vitro uptake assay with [^3H]EbG in HEK-OATP1B1 cells
T2 sequence (Q9Y6L6 1-691): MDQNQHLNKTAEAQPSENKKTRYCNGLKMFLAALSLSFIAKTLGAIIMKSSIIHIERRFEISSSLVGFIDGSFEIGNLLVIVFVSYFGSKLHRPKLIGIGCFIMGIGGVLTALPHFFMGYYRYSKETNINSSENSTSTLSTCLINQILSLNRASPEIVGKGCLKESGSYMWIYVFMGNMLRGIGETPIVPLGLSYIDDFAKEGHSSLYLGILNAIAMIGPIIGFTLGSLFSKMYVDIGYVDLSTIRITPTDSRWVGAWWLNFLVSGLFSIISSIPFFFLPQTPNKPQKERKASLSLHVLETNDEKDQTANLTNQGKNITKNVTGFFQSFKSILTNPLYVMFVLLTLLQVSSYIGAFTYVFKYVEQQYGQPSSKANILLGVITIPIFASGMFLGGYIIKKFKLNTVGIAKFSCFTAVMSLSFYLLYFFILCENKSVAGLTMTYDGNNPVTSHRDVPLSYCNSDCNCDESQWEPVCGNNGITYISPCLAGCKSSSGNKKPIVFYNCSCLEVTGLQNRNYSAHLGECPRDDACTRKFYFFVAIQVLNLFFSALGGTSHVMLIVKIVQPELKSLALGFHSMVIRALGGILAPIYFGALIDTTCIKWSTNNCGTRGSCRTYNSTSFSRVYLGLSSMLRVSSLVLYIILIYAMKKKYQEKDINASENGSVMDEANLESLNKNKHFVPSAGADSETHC
Procedure: as §2, §3, §4

NTCP = target: T3, NTCP (Homo sapiens, UniProt Q14973); assay: In vitro uptake assay with [^3H]TC in CHO-NTCP cells
T3 sequence (Q14973 1-349): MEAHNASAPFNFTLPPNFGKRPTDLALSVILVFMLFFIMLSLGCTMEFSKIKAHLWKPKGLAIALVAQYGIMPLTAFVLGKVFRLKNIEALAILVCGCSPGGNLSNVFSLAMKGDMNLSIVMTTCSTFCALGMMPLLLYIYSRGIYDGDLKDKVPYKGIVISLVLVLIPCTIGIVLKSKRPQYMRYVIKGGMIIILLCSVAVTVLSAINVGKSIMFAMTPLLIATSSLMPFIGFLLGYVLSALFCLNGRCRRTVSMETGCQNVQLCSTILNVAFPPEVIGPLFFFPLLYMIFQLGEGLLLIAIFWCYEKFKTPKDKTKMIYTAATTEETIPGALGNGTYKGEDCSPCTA
Procedure: as §2, §3
Cells were seeded in 24-well plates at 400,000 cells per well. After 24 hours, the culture medium was removed and cells were washed twice with 1 mL 10 mM HEPES-Hank’s Balanced Salt Solution (HBSS; with Ca and Mg; 37°C pH 7.4) washing buffer. […] Of the dosing solution, 250 μL was added to the washed cells and incubation took place at 37°C for 15 minutes. The plates were cooled on ice and 1 mL 1% BSA ice-cold HBSS (with Ca and Mg) was added. Cells were washed twice with 2 mL ice-cold HBSS (with Ca and Mg) and were finally lysed with 250 μL 0.1 M NaOH. The plates were shaken for 15 minutes at 37°C. Of the lysate, 150 μL was used for liquid scintillation counting (TriCarb 2900 TR; Perkin Elmer) and 25 μL was subjected to a BCA assay (ThermoFisher Scientific) to determine protein content. Data points were collected in triplicate. IC50-values were calculated with Graphpad Prism v3.00 (Graphpad software).

[2] = cited from earlier work
[3] = test system: hepatobiliary transport of [^18F]FCA; assay: Dynamic PET of [^18F]FCA in control, rifampicin and bosentan treated FVB-mice; settings: pretreated FVB-mice; dynamic μPET
Procedure: Hepatobiliary transport of the tracer was evaluated in female wild-type FVB mice (5 weeks old, Charles River). The animals were housed in accordance with European Ethics Committee guidelines. The animal studies were approved by the Animal Experimental Ethical Committee of Ghent University (ECD 15/69). Food and water was provided ad libitum. Animals were fasted overnight before the PET-scan.
Mice were anesthetized with 1.5 v:v % isoflurane in 100% O2 for the duration of the experiment. An intravenous polyethylene line was placed in the lateral tail vein. The animals were placed in the small animal PET/CT-scanner (FLEX Triumph II small animal PET/CT-scanner; PET field of view: 7.5 cm axial; 1.3 mm spatial resolution; TriFoil Imaging) on a heated bed. A CT-scan was acquired for anatomical correlation.
The interaction of rifampicin (Sigma Aldrich) and bosentan (Activate Scientific) on in vivo [^18F]FCA transport was examined. FVB-mice were divided into 3 different groups (n = 3 per group): rifampicin, bosentan, and a control DMSO vehicle treated group). Both drugs were administered in doses of 100 mg/kg, intra-peritoneal in DMSO:PBS 70:30 v:v (rifampicin) or DMSO (bosentan) 1 hour before the start of the PET-scan. An additional dose (25 mg/kg for rifampicin in DMSO:PBS 40:60 v:v, 50 mg/kg for bosentan in DMSO) was co-injected intravenously with the tracer.
For each scan, 10 MBq of [^18F]FCA was administered intravenously and a 1 hour dynamic scan was started. Immediately after the dynamic scan, 18 MBq [^18F]FDG was injected intravenously. After 20 minutes, a 20 minutes static scan was taken.
PET-data were obtained in list-mode and were iteratively reconstructed (50 iterations) in frames of 15 seconds for the first 10 minutes, followed by 50 frames of 1 minute. ROI’s were drawn manually over liver, gallbladder and intestines using PMod software. A ROI was drawn in the left ventricle on the static [^18F]FDG scan to obtain an image-derived arterial blood input curve. The uptake of [^18F]FCA in arterial blood, liver, gallbladder and intestines was expressed as a % injected dose (% ID) and normalized for the weight of a 20 gram mouse. Time-activity curves (TAC’s) were generated using these values.
AUC, maximum % ID, and time to peak values were determined for the TAC’s with Graphpad Prism v3.00. Differences between 2 groups were determined with the non-parametric Mann-Whitney U test. P-values ≤ 0.05 were considered significant.

BSEP = BSEP (Homo sapiens, UniProt O95342); assay: In vitro efflux competition assay with [^3H]TC in BSEP membrane vesicles
Procedure: as §1

[4] = 15 minutes of incubation without added FCA

Chain of MRP2 (Q92887 whole entry): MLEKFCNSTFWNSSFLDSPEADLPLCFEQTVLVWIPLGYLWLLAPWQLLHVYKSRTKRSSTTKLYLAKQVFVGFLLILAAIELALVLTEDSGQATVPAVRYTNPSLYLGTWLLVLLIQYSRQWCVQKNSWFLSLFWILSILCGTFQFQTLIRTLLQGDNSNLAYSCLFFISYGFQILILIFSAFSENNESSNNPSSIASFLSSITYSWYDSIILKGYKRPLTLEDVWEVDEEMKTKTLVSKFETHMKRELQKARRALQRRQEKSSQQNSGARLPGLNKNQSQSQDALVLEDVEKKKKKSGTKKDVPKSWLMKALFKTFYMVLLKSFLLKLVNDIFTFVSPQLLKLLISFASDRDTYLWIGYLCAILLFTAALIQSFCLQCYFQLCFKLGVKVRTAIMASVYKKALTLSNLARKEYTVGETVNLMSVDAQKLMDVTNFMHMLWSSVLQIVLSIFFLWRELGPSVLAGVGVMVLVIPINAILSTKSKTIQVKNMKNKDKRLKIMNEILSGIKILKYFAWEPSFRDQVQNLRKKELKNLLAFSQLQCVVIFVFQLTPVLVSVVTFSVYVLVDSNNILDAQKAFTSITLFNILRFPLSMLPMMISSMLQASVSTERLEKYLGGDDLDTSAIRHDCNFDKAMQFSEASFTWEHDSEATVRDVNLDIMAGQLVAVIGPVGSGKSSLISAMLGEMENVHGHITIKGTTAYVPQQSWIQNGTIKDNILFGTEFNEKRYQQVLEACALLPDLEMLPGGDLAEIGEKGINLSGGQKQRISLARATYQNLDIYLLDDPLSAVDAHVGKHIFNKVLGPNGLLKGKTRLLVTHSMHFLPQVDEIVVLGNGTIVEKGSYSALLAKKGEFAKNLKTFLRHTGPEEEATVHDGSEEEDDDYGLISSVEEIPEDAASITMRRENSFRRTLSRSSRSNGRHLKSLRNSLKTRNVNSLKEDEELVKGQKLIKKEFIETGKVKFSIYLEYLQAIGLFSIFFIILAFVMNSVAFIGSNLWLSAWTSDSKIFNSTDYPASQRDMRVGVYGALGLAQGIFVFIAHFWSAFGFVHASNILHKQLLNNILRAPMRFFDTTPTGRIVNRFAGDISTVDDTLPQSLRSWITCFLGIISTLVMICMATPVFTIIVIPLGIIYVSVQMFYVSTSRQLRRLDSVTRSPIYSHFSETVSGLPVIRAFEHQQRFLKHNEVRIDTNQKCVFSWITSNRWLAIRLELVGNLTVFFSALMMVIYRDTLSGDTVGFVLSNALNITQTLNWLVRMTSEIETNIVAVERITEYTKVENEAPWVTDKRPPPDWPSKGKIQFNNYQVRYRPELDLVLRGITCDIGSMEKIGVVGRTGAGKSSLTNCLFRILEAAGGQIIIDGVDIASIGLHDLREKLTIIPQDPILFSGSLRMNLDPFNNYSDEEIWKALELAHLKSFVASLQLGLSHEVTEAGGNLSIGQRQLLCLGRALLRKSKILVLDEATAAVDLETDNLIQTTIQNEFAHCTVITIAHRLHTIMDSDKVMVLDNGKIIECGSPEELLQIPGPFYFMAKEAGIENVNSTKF
Chain of BSEP (O95342 whole entry): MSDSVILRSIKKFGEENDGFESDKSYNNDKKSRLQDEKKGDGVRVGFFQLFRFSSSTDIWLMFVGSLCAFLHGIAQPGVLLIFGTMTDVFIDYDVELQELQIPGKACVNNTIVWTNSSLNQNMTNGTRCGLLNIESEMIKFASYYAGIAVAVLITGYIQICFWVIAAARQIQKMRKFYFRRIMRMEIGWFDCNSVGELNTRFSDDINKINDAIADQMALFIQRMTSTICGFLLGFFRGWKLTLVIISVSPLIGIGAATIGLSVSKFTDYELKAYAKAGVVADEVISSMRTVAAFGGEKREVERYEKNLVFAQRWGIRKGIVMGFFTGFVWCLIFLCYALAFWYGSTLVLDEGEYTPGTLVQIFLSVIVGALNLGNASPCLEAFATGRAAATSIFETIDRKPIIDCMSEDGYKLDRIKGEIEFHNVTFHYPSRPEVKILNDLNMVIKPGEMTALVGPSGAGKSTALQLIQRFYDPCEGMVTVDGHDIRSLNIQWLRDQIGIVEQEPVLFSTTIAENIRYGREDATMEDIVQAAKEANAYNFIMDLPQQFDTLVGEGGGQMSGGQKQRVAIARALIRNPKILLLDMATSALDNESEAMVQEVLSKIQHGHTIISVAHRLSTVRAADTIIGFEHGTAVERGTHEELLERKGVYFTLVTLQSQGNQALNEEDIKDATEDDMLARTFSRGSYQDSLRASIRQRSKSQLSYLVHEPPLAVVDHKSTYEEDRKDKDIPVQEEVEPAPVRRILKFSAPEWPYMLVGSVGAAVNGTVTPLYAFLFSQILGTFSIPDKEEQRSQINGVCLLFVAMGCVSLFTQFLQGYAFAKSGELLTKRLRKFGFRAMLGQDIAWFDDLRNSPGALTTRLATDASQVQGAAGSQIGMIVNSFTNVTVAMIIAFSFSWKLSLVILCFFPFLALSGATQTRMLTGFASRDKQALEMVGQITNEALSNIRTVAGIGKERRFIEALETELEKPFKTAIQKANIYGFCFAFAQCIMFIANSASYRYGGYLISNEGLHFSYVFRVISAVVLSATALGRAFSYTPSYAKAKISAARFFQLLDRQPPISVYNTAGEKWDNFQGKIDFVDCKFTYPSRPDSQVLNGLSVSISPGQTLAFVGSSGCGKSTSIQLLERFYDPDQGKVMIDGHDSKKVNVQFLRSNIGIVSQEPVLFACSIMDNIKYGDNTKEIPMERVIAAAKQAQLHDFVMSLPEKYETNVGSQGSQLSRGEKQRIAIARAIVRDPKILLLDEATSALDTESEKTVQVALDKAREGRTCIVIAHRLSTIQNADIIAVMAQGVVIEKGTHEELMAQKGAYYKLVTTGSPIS

[^99mTc]-DTPA-CA [^99mTc CA]
max % ID liver [1]: 25.7 % ID
maximal % ID in gallbladder and intestines [1]: 47.8 % ID
time to reach max % ID in liver [1]: 12.0 min

[^99mTc]-DTPA-CDCA [^99mTc CDCA]
max % ID liver [1]: 37.3 % ID
maximal % ID in gallbladder and intestines [1]: 62.2 % ID
time to reach max % ID in liver [1]: 12.7 min

C[C@]12CC[C@@H]3c4ccc(O)cc4CC[C@H]3[C@@H]1CC[C@@H]2O[C@@H]1O[C@H](C(=O)O)[C@@H](O)[C@H](O)[C@H]1O [[^3H]EbG, [^3H]estradiol-17β-glucuronide]
uptake in MRP2 vesicles (MRP2; 10 minutes of incubation): 18.5 ± 3.8 pmol/mg protein
uptake in HEK-OATP1B3 (OATP1B3; [4]): 8.6 ± 1.3 pmol/mg protein
uptake in HEK-OATP1B3 (kinetic profile) (OATP1B3; S2 file, 1 µM, 15 minutes): 19.0 pmol/mg protein
uptake in HEK-OATP1B3 versus control (OATP1B3; S2 file, 15 minutes): 13 times
uptake in HEK-OATP1B1 (OATP1B1; [4]): 84.0 ± 7.7 pmol/mg protein
uptake in HEK-OATP1B1 (kinetic profile) (OATP1B1; S2 file, 1 µM, 15 minutes): 163.9 pmol/mg protein
uptake in HEK-OATP1B1 versus control (OATP1B1; S2 file, 15 minutes): 115 times

C[C@H](CCC(=O)NCCS(=O)(=O)O)[C@H]1CC[C@H]2[C@@H]3[C@H](O)C[C@@H]4C[C@H](O)CC[C@]4(C)[C@H]3C[C@H](O)[C@]12C [[^3H]TC, [^3H]taurocholate]
uptake in CHO-NTCP cells (NTCP; [4]): 95.2 ± 6.0 pmol/mg protein
uptake in CHO-NTCP cells (kinetic profile) (NTCP; S2 file, 1 µM, 15 minutes of incubation): 135.5 pmol/mg protein
uptake in CHO-NTCP cells versus control (NTCP; S2 file, 15 minutes): 101 fold

Cc1cc(C)c(NC(=O)CN(CC(=O)[O-])CC(=O)[O-])c(C)c1Br.Cc1cc(C)c(NC(=O)CN(CC(=O)[O-])CC(=O)[O-])c(C)c1Br.[99Tc+4] [^99mTc-mebrofenin, ^99mTc Mebrofenin]
% ID in gallbladder and intestines ([2]; FVB-mice): 78.1 % ID
maximum % ID liver ([2]; FVB-mice): 51.8 % ID
time to reach maximum % ID in liver ([2]; FVB-mice): 2.2 min

COc1ccccc1Oc1c(NS(=O)(=O)c2ccc(C(C)(C)C)cc2)nc(-c2ncccn2)nc1OCCO [Bosentan, bosentan, reference compound]
effect on hepatobiliary transport of [^18F]FCA [3]: significantly inhibited

C[C@H](CCC(=O)O)[C@H]1CC[C@H]2[C@@H]3[C@H](O)C[C@@H]4C[C@@H](F)CC[C@]4(C)[C@H]3C[C@H](O)[C@]12C [FCA, 3β-Fluoro-7α,12α-Dihydroxy-5β-Cholanic acid]
IC50 (MRP2): 577 ± 300 µM
IC50 (OATP1B3): 25.2 ± 12.7 µM
IC50 (NTCP): 6.6 ± 0.8 µM
IC50 (OATP1B1): 10.5 ± 1.1 µM
IC50 (BSEP): 253 ± 76 µM

CO[C@H]1/C=C/O[C@@]2(C)Oc3c(C)c(O)c4c(O)c(c(/C=N/N5CCN(C)CC5)c(O)c4c3C2=O)NC(=O)/C(C)=C\C=C\[C@H](C)[C@H](O)[C@@H](C)[C@@H](O)[C@@H](C)[C@H](OC(C)=O)[C@@H]1C [Rifampicin, rifampicin]
effect on ^99mTc mebrofenin canalicular efflux on the SPECT-scan ([2]; not told): complete block of canalicular efflux
